Assay results taken from patent publication US20250353841A1 (BIOGEN MA INC., priority 2022, published 2025).

Tested on: mutant Huntington (HTT) protein
Test: HTT Mutant HTRF iPSC assay (mHTT protein lowering)
Type: cell-based
Conditions: human iPSC derived from a HTT patient with a poly-Q49 mutation

Compound	IC50 [µM]
CN1C(=O)COc2cc(-c3cc(F)c4nc(C5CCNCC5)cn4c3)cnc21 [Compound 73, 7-(8-fluoro-2-(piperidin-4-yl)imidazo[1,2-a]pyridin-6-yl)-4-methyl-2H-pyrido[3,2-b][1,4]oxazin-3(4H)-one]	1 to 9
CC(=O)N1CCC(c2cn3cc(-c4cc(C)c5nc(C)cn5n4)cc(F)c3n2)CC1 [Compound 74, 1-[4-[6-(2,8-dimethylimidazo[1,2-b]pyridazin-6-yl)-8-fluoro-imidazo[1,2-a]pyridin-2-yl]-1-piperidyl]ethanone]	0.1 to 1
Cn1cc2cc(-c3cc(F)c4nc(C56CCNC(C5)C6)cn4c3)cc(F)c2n1 [Compound 75]	1 to 9
CN1CCC2(c3cn4cc(-c5cc(F)c6nn(C)cc6c5)cc(F)c4n3)CC1C2 [Compound 76, 5-(8-fluoro-6-(7-fluoro-2-methyl-2H-indazol-5-yl)imidazo[1,2-a]pyridin-2-yl)-2-methyl-2-azabicyclo[3.1.1]heptane]	1 to 9
CNC12CCC(c3cn4cc(-c5cc(F)c6nn(C)cc6c5)cc(F)c4n3)(C1)C2 [Compound 77, 4-(8-fluoro-6-(7-fluoro-2-methyl-2H-indazol-5-yl)imidazo[1,2-a]pyridin-2-yl)-N-methylbicyclo[2.1.1] hexan-1-amine]	1 to 9
Cc1cn2nc(-c3cc(F)c4nc(C5CC6(CCNCC6)C5)cn4c3)cc(C)c2n1 [Compound 78, 6-(8-fluoro-2-(7-azaspiro[3.5]nonan-2-yl)imidazo[1,2-a]pyridin-6-yl)-2,8-dimethylimidazo[1,2-b]pyridazine]	< 0.1
CNC12COC(c3cn4cc(-c5cc(F)c6nn(C)cc6c5)cc(F)c4n3)(C1)C2 [Compound 79, 1-[8-fluoro-6-(7-fluoro-2-methyl-indazol-5-yl)imidazo[1,2-a]pyridin-2-yl]-N-methyl-2-oxabicyclo[2.1.1]hexan-4-amine]	0.1 to 1
Cc1cn2nc(-c3cc(F)c4nc(C56CC(C5)N(C)C6)cn4c3)cc(C)c2n1 [Compound 80]	0.1 to 1
Cc1nc2c(F)cc(-c3cc(F)c4nc(C5CCNCC5)cn4c3)cc2o1 [Compound 82, 4-fluoro-6-(8-fluoro-2-(piperidin-4-yl)imidazo[1,2-a]pyridin-6-yl)-2-methylbenzo[d]oxazole]	< 0.1
COc1cc(-c2cc(F)c3nc(C4CCNCC4)cn3c2)cc2cn(C)nc12 [Compound 83, 5-(8-fluoro-2-(piperidin-4-yl)imidazo[1,2-a]pyridin-6-yl)-7-methoxy-2-methyl-2H-indazole]	0.1 to 1
Cn1cc2cc(-c3cc(F)c4nc(C5CCNCC5)cn4c3)cc(C(F)F)c2n1 [Compound 84, 7-(difluoromethyl)-5-(8-fluoro-2-(piperidin-4-yl)imidazo[1,2-a]pyridin-6-yl)-2-methyl-2H-indazole]	< 0.1
Cn1cc2cc(-c3cc(F)c4nc(C5CCNCC5)cn4c3)cc(C#N)c2n1 [Compound 85, 5-(8-fluoro-2-(piperidin-4-yl)imidazo[1,2-a]pyridin-6-yl)-2-methyl-2H-indazole-7-carbonitrile]	0.1 to 1
Cn1cc2c(F)cc(-c3cc(F)c4nc(C5CCNCC5)cn4c3)cc2n1 [Compound 86, 4-fluoro-6-(8-fluoro-2-(piperidin-4-yl)imidazo[1,2-a]pyridin-6-yl)-2-methyl-2H-indazole]	1 to 9
Cn1nc2cc(-c3cc(F)c4nc(C5CCNCC5)cn4c3)cc(F)c2n1 [Compound 87, 4-fluoro-6-(8-fluoro-2-(piperidin-4-yl)imidazo[1,2-a]pyridin-6-yl)-2-methyl-2H-benzo[d][1,2,3]triazole]	0.1 to 1
Cc1nc2c(F)cc(-c3cc(F)c4nc(C5CCNCC5)cn4c3)cn2n1 [Compound 88, 8-fluoro-6-(8-fluoro-2-(piperidin-4-yl)imidazo[1,2-a]pyridin-6-yl)-2-methyl-[1,2,4]triazolo[1,5-a]pyridine]	0.1 to 1
COc1cc(-c2cc(F)c3nc(C4CCNCC4)cn3c2)cn2cc(C)nc12 [Compound 89, 8-fluoro-8′-methoxy-2′-methyl-2-(piperidin-4-yl)-6,6′-biimidazo[1,2-a]pyridine]	0.1 to 1
Cc1nc2c(F)cc(-c3cc(F)c4nc(C5CCNCC5)cn4c3)cc2s1 [Compound 90, 4-fluoro-6-(8-fluoro-2-(piperidin-4-yl)imidazo[1,2-a]pyridin-6-yl)-2-methylbenzo[d]thiazole]	1 to 9
Cc1cn2nc(-c3cc(F)c4nc(C56CC(N)(C5)C6)cn4c3)cc(C)c2n1 [Compound 91]	< 0.1
Cc1cc(-c2cc(F)c3nc(C4CCNCC4)cn3c2)nc2cn(C)nc12 [Compound 92, 5-(8-fluoro-2-(piperidin-4-yl)imidazo[1,2-a]pyridin-6-yl)-2,7-dimethyl-2H-pyrazolo[4,3-b]pyridine]	< 0.1
Cn1cc2cc(-c3cc(F)c4nc(C5CCNCC5)cn4c3)cc(F)c2n1 [Compound 93, 7-fluoro-5-(8-fluoro-2-(piperidin-4-yl)imidazo[1,2-a]pyridin-6-yl)-2-methyl-2H-indazole]	0.1 to 1

Compound	IC50 [µM]
Cc1cc(-c2cc(F)c3nc(C4CCNCC4)cn3c2)cc2cn(C)nc12 [Compound 94, 5-(8-fluoro-2-(piperidin-4-yl)imidazo[1,2-a]pyridin-6-yl)-2,7-dimethyl-2H-indazole]	0.1 to 1
Cc1cn2cc(-c3cc(F)c4nc(C5CCNCC5)cn4c3)cc(C)c2n1 [Compound 95, 8-fluoro-2′,8′-dimethyl-2-(piperidin-4-yl)-6,6′-biimidazo[1,2-a]pyridine]	0.1 to 1
Cc1cn2cc(-c3cc(F)c4nc(C5CCNCC5)cn4c3)ccc2n1 [Compound 96, 8-fluoro-2′-methyl-2-(piperidin-4-yl)-6,6′-biimidazo[1,2-a]pyridine]	1 to 9
Cc1cn2cc(-c3cc(F)c4nc(C5CCNCC5)cn4c3)cc(F)c2n1 [Compound 97, 8,8′-difluoro-2-methyl-2′-(piperidin-4-yl)-6,6′-biimidazo[1,2-a]pyridine]	0.1 to 1
Fc1cc(-c2ccc3sncc3c2)cn2cc(C3CCNCC3)nc12 [Compound 98, 5-(8-fluoro-2-(piperidin-4-yl)imidazo[1,2-a]pyridin-6-yl)benzo[d]isothiazole]	1 to 9
Cc1cn2nc(-c3cc(F)c4nc(C5CCN(C6COC6)CC5)cn4c3)cc(C)c2n1 [Compound 99, 6-(8-fluoro-2-(1-(oxetan-3-yl)piperidin-4-yl)imidazo[1,2-a]pyridin-6-yl)-2,8-dimethylimidazo[1,2-b]pyridazine]	< 0.1
CNC12CC(c3cn4cc(-c5cc(C)c6nc(C)cn6n5)cc(F)c4n3)(C1)C2 [Compound 100, 3-(6-(2,8-dimethylimidazo[1,2-b]pyridazin-6-yl)-8-fluoroimidazo[1,2-a]pyridin-2-yl)-N-methylbicyclo[1.1.1] pentan-1-amine]	< 0.1
Cc1cn2nc(-c3cc(F)c4nc(C5CCNCC5)cn4c3)c(C)cc2n1 [Compound 101, 6-(8-fluoro-2-(piperidin-4-yl)imidazo[1,2-a]pyridin-6-yl)-2,7-dimethylimidazo[1,2-b]pyridazine]	1 to 9
Cc1cc(-c2cc(F)c3nc(C4CCNCC4)cn3c2)nn2ccnc12 [Compound 102, 6-(8-fluoro-2-(piperidin-4-yl)imidazo[1,2-a]pyridin-6-yl)-8-methylimidazo[1,2-b]pyridazine]	0.1 to 1
CCc1cc(-c2cc(F)c3nc(C4CCNCC4)cn3c2)cn2cc(C)nc12 [Compound 103, 8-ethyl-8′-fluoro-2-methyl-2′-(piperidin-4-yl)-6,6′-biimidazo[1,2-a]pyridine]	0.1 to 1
Cn1ncc2cc(-c3cc(F)c4nc(C5CCNCC5)cn4c3)cc(F)c21 [Compound 104, 7-fluoro-5-(8-fluoro-2-(piperidin-4-yl)imidazo[1,2-a]pyridin-6-yl)-1-methyl-1H-indazole]	1 to 9
Cc1cc(-c2cc(F)c3nc(C4CCNCC4)cn3c2)nn2cnnc12 [Compound 105, 6-(8-fluoro-2-(piperidin-4-yl)imidazo[1,2-a]pyridin-6-yl)-8-methyl-[1,2,4]triazolo[4,3-b]pyridazine]	1 to 9
Cc1cn2nc(-c3cc(F)c4nc(C5CCN(C6CC6)CC5)cn4c3)ccc2n1 [Compound 106, 6-(2-(1-cyclopropylpiperidin-4-yl)-8-fluoroimidazo[1,2-a]pyridin-6-yl)-2-methylimidazo[1,2-b]pyridazine]	< 0.1
Cc1cn2nc(-c3cc(F)c4nc(C5CC6(CNC6)C5)cn4c3)cc(C)c2n1 [Compound 107]	0.1 to 1
Cc1cn2nc(-c3cc(F)c4nc(C56CCC(N)(CC5)CC6)cn4c3)cc(C)c2n1 [Compound 108, 4-(6-(2,8-dimethylimidazo[1,2-b]pyridazin-6-yl)-8-fluoroimidazo[1,2-a]pyridin-2-yl)bicyclo[2.2.2]octan-1-amine]	< 0.1
Cc1cn2nc(-c3cc(F)c4nc(C56CC(N(C)C)(C5)C6)cn4c3)cc(C)c2n1 [Compound 109, 3-(6-(2,8-dimethylimidazo[1,2-b]pyridazin-6-yl)-8-fluoroimidazo[1,2-a]pyridin-2-yl)-N,N-dimethylbicyclo[1.1.1] pentan-1-amine]	< 0.1
Cc1cn2nc(-c3cc(F)c4nc(C5CCNC6(CC6)C5)cn4c3)cc(C)c2n1 (stereo not shown) [Compound 110, 6-(8-fluoro-2-(4-azaspiro[2.5]octan-7-yl)imidazo[1,2-a]pyridin-6-yl)-2,8-dimethylimidazo[1,2-b]pyridazine]	< 0.1
Cc1cn2nc(-c3cc(F)c4nc(C5CCN(C)CC5)cn4c3)cc(C)c2n1 [Compound 111, 6-(8-fluoro-2-(1-methylpiperidin-4-yl)imidazo[1,2-a]pyridin-6-yl)-2,8-dimethylimidazo[1,2-b]pyridazine]	< 0.1
CCN1CCC(c2cn3cc(-c4cc(C)c5nc(C)cn5n4)cc(F)c3n2)CC1 [Compound 112, 6-(2-(1-ethylpiperidin-4-yl)-8-fluoroimidazo[1,2-a]pyridin-6-yl)-2,8-dimethylimidazo[1,2-b]pyridazine]	< 0.1
Cc1cn2nc(-c3cc(F)c4nc(C5CCN(C6CC6)CC5)cn4c3)cc(C)c2n1 [Compound 113, 6-[2-(1-cyclopropyl-4-piperidyl)-8-fluoro-imidazo[1,2-a]pyridin-6-yl]-2,8-dimethyl-imidazo[1,2-b]pyridazine]	< 0.1
